Reference: ChEMBL document CHEMBL3885881, “DrugMatrix”

Species on record: Rattus norvegicus
Experiment: DrugMatrix - Regimen: Daily Repeat
Assay type: toxicity, organism-based, Sprague-Dawley
Design: regimen Daily Repeat, gender Male, age 6-8 weeks
Settings: in vivo, ip, 60 mg/kg, route intraperitoneal, dose level High, vehicle 100 % PBS; for BASOPHIL / EOSINOPHIL / ERYTHROCYTE COUNT / HEMATOCRIT / HEMOGLOBIN / LEUKOCYTE COUNT / LYMPHOCYTE / MEAN CORPUSCULAR HEMOGLOBIN / MEAN CORPUSCULAR HEMOGLOBIN CONCENTRATION / MEAN CORPUSCULAR VOLUME / MONOCYTE / NEUTROPHIL / PLATELET COUNT: tissue Blood; for ALANINE AMINOTRANSFERASE / ALBUMIN / ALKALINE PHOSPHATASE / ASPARTATE AMINOTRANSFERASE / BLOOD UREA NITROGEN / CARBON DIOXIDE / CHLORIDE / CHOLESTEROL / CREATINE PHOSPHOKINASE / CREATININE / GLUCOSE / LACTATE DEHYDROGENASE / LIPASE / PHOSPHORUS / POTASSIUM / SODIUM / TOTAL BILIRUBIN / TOTAL PROTEIN / URIC ACID: tissue Plasma

C[C@H]1C(=O)O[C@@H]2CCN3CC=C(COC(=O)[C@](C)(O)[C@]1(C)O)[C@H]23 [MONOCROTALINE]
BASOPHIL (72 h, time 3 day): 1.7% | EOSINOPHIL (72 h, time 3 day): 1% | ERYTHROCYTE COUNT (72 h, time 3 day): 6.77 x10E6/uL | HEMATOCRIT (72 h, time 3 day): 46.53% | HEMOGLOBIN (72 h, time 3 day): 14.7 G/DL | LEUKOCYTE COUNT (72 h, time 3 day): 8.87 x10E3/uL | LYMPHOCYTE (72 h, time 3 day): 84.3% | MEAN CORPUSCULAR HEMOGLOBIN (72 h, time 3 day): 21.73 pg | MEAN CORPUSCULAR HEMOGLOBIN CONCENTRATION (72 h, time 3 day): 31.63 G/DL | MEAN CORPUSCULAR VOLUME (72 h, time 3 day): 68.73 fL | MONOCYTE (72 h, time 3 day): 1.9% | NEUTROPHIL (72 h, time 3 day): 9.57% | PLATELET COUNT (72 h, time 3 day): 1156.67 x10E3/uL | ALANINE AMINOTRANSFERASE (72 h, time 3 day): 33.67 u/L | ALBUMIN (72 h, time 3 day): 4.27 G/DL | ALKALINE PHOSPHATASE (72 h, time 3 day): 425.33 u/L | ASPARTATE AMINOTRANSFERASE (72 h, time 3 day): 77.33 u/L | BLOOD UREA NITROGEN (72 h, time 3 day): 16 mg/dL | CARBON DIOXIDE (72 h, time 3 day): 30 mmol/L | CHLORIDE (72 h, time 3 day): 104.33 MEQ/L | CHOLESTEROL (72 h, time 3 day): 79 mg/dL | CREATINE PHOSPHOKINASE (72 h, time 3 day): 394.33 u/L | CREATININE (72 h, time 3 day): 0.47 mg/dL | GLUCOSE (72 h, time 3 day): 166.33 mg/dL | LACTATE DEHYDROGENASE (72 h, time 3 day): 66 u/L | LIPASE (72 h, time 3 day): 14.67 u/L | PHOSPHORUS (72 h, time 3 day): 12.57 mg/dL | POTASSIUM (72 h, time 3 day): 7.2 MEQ/L | SODIUM (72 h, time 3 day): 148.33 MEQ/L | TOTAL BILIRUBIN (72 h, time 3 day): 0.47 mg/dL | TOTAL PROTEIN (72 h, time 3 day): 6.57 G/DL | URIC ACID (72 h, time 3 day): 1.77 mg/dL | BASOPHIL (120 h, time 5 day): 0.4% | EOSINOPHIL (120 h, time 5 day): 0.6% | ERYTHROCYTE COUNT (120 h, time 5 day): 7.1 x10E6/uL | HEMATOCRIT (120 h, time 5 day): 48.3% | HEMOGLOBIN (120 h, time 5 day): 14.93 G/DL | LEUKOCYTE COUNT (120 h, time 5 day): 10.69 x10E3/uL | LYMPHOCYTE (120 h, time 5 day): 91.33% | MEAN CORPUSCULAR HEMOGLOBIN (120 h, time 5 day): 21.03 pg | MEAN CORPUSCULAR HEMOGLOBIN CONCENTRATION (120 h, time 5 day): 30.93 G/DL | MEAN CORPUSCULAR VOLUME (120 h, time 5 day): 68.03 fL | MONOCYTE (120 h, time 5 day): 1.63% | NEUTROPHIL (120 h, time 5 day): 5.2% | PLATELET COUNT (120 h, time 5 day): 1323.67 x10E3/uL | ALANINE AMINOTRANSFERASE (120 h, time 5 day): 48 u/L | ALBUMIN (120 h, time 5 day): 4.1 G/DL | ALKALINE PHOSPHATASE (120 h, time 5 day): 488 u/L | ASPARTATE AMINOTRANSFERASE (120 h, time 5 day): 69 u/L | BLOOD UREA NITROGEN (120 h, time 5 day): 13 mg/dL | CARBON DIOXIDE (120 h, time 5 day): 30 mmol/L | CHLORIDE (120 h, time 5 day): 108 MEQ/L | CHOLESTEROL (120 h, time 5 day): 65.67 mg/dL | CREATINE PHOSPHOKINASE (120 h, time 5 day): 139 u/L | CREATININE (120 h, time 5 day): 0.23 mg/dL | GLUCOSE (120 h, time 5 day): 152.33 mg/dL | LACTATE DEHYDROGENASE (120 h, time 5 day): 44.67 u/L | LIPASE (120 h, time 5 day): 13.33 u/L | PHOSPHORUS (120 h, time 5 day): 14.7 mg/dL | POTASSIUM (120 h, time 5 day): 6.77 MEQ/L | SODIUM (120 h, time 5 day): 155 MEQ/L | TOTAL BILIRUBIN (120 h, time 5 day): 0.2 mg/dL | TOTAL PROTEIN (120 h, time 5 day): 6.33 G/DL | URIC ACID (120 h, time 5 day): 1.63 mg/dL | BASOPHIL ([…], time 14 day): 0.38% | EOSINOPHIL ([…], time 14 day): 0.48% | ERYTHROCYTE COUNT ([…], time 14 day): 8.25 x10E6/uL | HEMATOCRIT ([…], time 14 day): 49.54% | HEMOGLOBIN ([…], time 14 day): 16.32 G/DL | LEUKOCYTE COUNT ([…], time 14 day): 14.35 x10E3/uL | LYMPHOCYTE ([…], time 14 day): 85.94% | MEAN CORPUSCULAR HEMOGLOBIN ([…], time 14 day): 19.8 pg | MEAN CORPUSCULAR HEMOGLOBIN CONCENTRATION ([…], time 14 day): 32.96 G/DL | MEAN CORPUSCULAR VOLUME ([…], time 14 day): 60.04 fL | MONOCYTE ([…], time 14 day): 1.94% | NEUTROPHIL ([…], time 14 day): 9.64% | PLATELET COUNT ([…], time 14 day): 1232.8 x10E3/uL | ALANINE AMINOTRANSFERASE ([…], time 14 day): 40.6 u/L | ALBUMIN ([…], time 14 day): 4.46 G/DL | ALKALINE PHOSPHATASE ([…], time 14 day): 403.4 u/L | ASPARTATE AMINOTRANSFERASE ([…], time 14 day): 73.6 u/L | BLOOD UREA NITROGEN ([…], time 14 day): 15.2 mg/dL | CARBON DIOXIDE ([…], time 14 day): 30.8 mmol/L | CHLORIDE ([…], time 14 day): 102.2 MEQ/L | CHOLESTEROL ([…], time 14 day): 89.2 mg/dL | CREATINE PHOSPHOKINASE ([…], time 14 day): 155.8 u/L | CREATININE ([…], time 14 day): 0.44 mg/dL | GLUCOSE ([…], time 14 day): 145 mg/dL | LACTATE DEHYDROGENASE ([…], time 14 day): 118.6 u/L | LIPASE ([…], time 14 day): 18.2 u/L | PHOSPHORUS ([…], time 14 day): 9.42 mg/dL | POTASSIUM ([…], time 14 day): 6.64 MEQ/L | SODIUM ([…], time 14 day): 148.8 MEQ/L | TOTAL BILIRUBIN ([…], time 14 day): 0.56 mg/dL | TOTAL PROTEIN ([…], time 14 day): 7.2 G/DL | URIC ACID ([…], time 14 day): 2.16 mg/dL
